Results from patent US20240390295A1, “METHODS FOR TREATING DEPRESSION” (JANSSEN PHARMACEUTICA NV, priority 2020, published 2024).

Tested on: adult patients (aged 18-64 years) with TRD
Assay: Maximum time to onset of clinician-reported adverse events by AE week 1/week 4 occurrence (Tables 5-16; modal dose 56, modal dose 84, Total)
Format: in vivo, human
Description: Patients were monitored for >90 minutes after ESK administration at each treatment session, after which time they could leave the clinical site at the clinician's discretion. AEs were monitored and reported, and safety assessments, including clinical laboratory tests and physical examinations, were conducted throughout the study. Clinician-reported AEs were categorized as mild, moderate, or severe based on clinical judgement (Table 1).
Since flexible dosing (ESK 56 or 84 mg) was permitted in the studies and an individual patient's doses could change within dosing timeframes, patients were stratified by modal dose during the respective periods.
The time to onset of the adverse events experienced by patients in Example 2 was analyzed. Tables 5-11 include the summary of specific adverse events by their respective categorized maximum time to Onset (i) across sessions 3-8 during Induction Phase by AE week 1 occurrence (Table 5), (ii) during Optimization Phase by AE week 1 occurrence (Table 6), (iii) during Optimization Phase by AE week 4 occurrence (Table 7), (iv) during Month 3-6 of Maintenance Phase by AE week 1 occurrence (Table 8), (v) Month 3-6 of Maintenance Phase by AE week 4 occurrence (Table 9), (vi) Month 6-12 of Maintenance Phase by AE week 1 occurrence (Table 10), and (vii) during Month 6-12 of Maintenance Phase by AE week 4 (Table 11).
Tables 12-16 include the incidences of clinician-reported blood pressure (Table 12), clinician-reported dissociation (Table 13), dizziness (Table 14), sedation (Table 15), and vertigo (Table 16) spanning week 1 to month 12 using the data of Example 2.

[1] = Based on Week 1, None, Month 3-6
[2] = Based on Week 1, None, Month 6-12
[3] = Based on Week 1, None, Weeks 2-4
[4] = Based on Week 1, Once, Month 3-6
[5] = Based on Week 1, Once, Month 6-12
[6] = Based on Week 1, Once, Weeks 2-4
[7] = Based on Week 1, Twice, Month 2
[8] = Based on Week 1, Twice, Month 3-6
[9] = Based on Week 1, Twice, Month 6-12
[10] = Based on Week 1, Twice, Weeks 2-4
[11] = Based on Week 1, incidence None, Month 2
[12] = Based on Week 1, incidence None, Month 3-6
[13] = Based on Week 1, incidence None, Month 6-12
[14] = Based on Week 1, incidence None, Weeks 2-4
[15] = Based on Week 1, incidence Once, Month 2
[16] = Based on Week 1, incidence Once, Month 3-6
[17] = Based on Week 1, incidence Once, Month 6-12
[18] = Based on Week 1, incidence Once, Weeks 2-4
[19] = Based on Week 1, incidence Twice, Month 2
[20] = Based on Week 1, incidence Twice, Month 3-6
[21] = Based on Week 1, incidence Twice, Month 6-12
[22] = Based on Week 1, incidence Twice, Weeks 2-4
[23] = Based on Week 4, None, Month 3-6

In the case of CN[C@]1(c2ccccc2Cl)CCCCC1=O [esketamine, (S)-2-(2-chlorophenyl)-2-(methylamino)cyclohexanone], the “Blood Pressure (clinician): 0-30 m” value (Based on Week 1, None, Month 2) is reported as 1, the “Blood Pressure (clinician): 31-60 m” value (Based on Week 1, None, Month 2) is reported as 12 and the “Blood Pressure (clinician): 61-90 m” value (Based on Week 1, None, Month 2) is reported as 2. For the same compound, the “Blood Pressure (clinician): % >60 m” value (Based on Week 1, None, Month 2) was 11.8%, the “Blood Pressure (clinician): TOTAL” value (Based on Week 1, None, Month 2) was 17 and the “Blood Pressure (clinician): n >60 m” value (Based on Week 1, None, Month 2) was 2. For the same compound, the “Blood Pressure (clinician): 31-60 m” value [1] was 13, the “Blood Pressure (clinician): 61-90 m” value [1] was 1 and the “Blood Pressure (clinician): % >60 m” value [1] was 5.9%. The “Blood Pressure (clinician): TOTAL” value [1] was 17, the “Blood Pressure (clinician): n >60 m” value [1] was 1 and the “Blood Pressure (clinician): 31-60 m” value [2] was 8. The “Blood Pressure (clinician): 61-90 m” value [2] was 1, the “Blood Pressure (clinician): % >60 m” value [2] was 10% and the “Blood Pressure (clinician): TOTAL” value [2] was 10. The “Blood Pressure (clinician): n >60 m” value [2] was 1, the “Blood Pressure (clinician): 31-60 m” value [3] was 20 and the “Blood Pressure (clinician): 61-90 m” value [3] was 1. The “Blood Pressure (clinician): % >60 m” value [3] was 4.8%, the “Blood Pressure (clinician): TOTAL” value [3] was 21 and the “Blood Pressure (clinician): n >60 m” value [3] was 1. For the same compound, the “Blood Pressure (clinician): 31-60 m” value (Based on Week 1, Once, Month 2) was 9, the “Blood Pressure (clinician): % >60 m” value (Based on Week 1, Once, Month 2) was 0% and the “Blood Pressure (clinician): TOTAL” value (Based on Week 1, Once, Month 2) was 9. For the same compound, the “Blood Pressure (clinician): n >60 m” value (Based on Week 1, Once, Month 2) was 0, the “Blood Pressure (clinician): 31-60 m” value [4] was 4 and the “Blood Pressure (clinician): % >60 m” value [4] was 0%. For the same compound, the “Blood Pressure (clinician): TOTAL” value [4] was 4, the “Blood Pressure (clinician): n >60 m” value [4] was 0 and the “Blood Pressure (clinician): 31-60 m” value [5] was 1. The “Blood Pressure (clinician): % >60 m” value [5] was 0%, the “Blood Pressure (clinician): TOTAL” value [5] was 1 and the “Blood Pressure (clinician): n >60 m” value [5] was 0. For the same compound, the “Blood Pressure (clinician): 0-30 m” value [6] was 1, the “Blood Pressure (clinician): 31-60 m” value [6] was 11 and the “Blood Pressure (clinician): 61-90 m” value [6] was 1. The “Blood Pressure (clinician): % >60 m” value [6] was 7.7%, the “Blood Pressure (clinician): TOTAL” value [6] was 13 and the “Blood Pressure (clinician): n >60 m” value [6] was 1. For the same compound, the “Blood Pressure (clinician): 31-60 m” value [7] was 10, the “Blood Pressure (clinician): % >60 m” value [7] was 0% and the “Blood Pressure (clinician): TOTAL” value [7] was 10. The “Blood Pressure (clinician): n >60 m” value [7] was 0, the “Blood Pressure (clinician): 31-60 m” value [8] was 3 and the “Blood Pressure (clinician): 61-90 m” value [8] was 1. For the same compound, the “Blood Pressure (clinician): % >60 m” value [8] was 25%, the “Blood Pressure (clinician): TOTAL” value [8] was 4 and the “Blood Pressure (clinician): n >60 m” value [8] was 1. For the same compound, the “Blood Pressure (clinician): 31-60 m” value [9] was 2, the “Blood Pressure (clinician): % >60 m” value [9] was 0% and the “Blood Pressure (clinician): TOTAL” value [9] was 2. The “Blood Pressure (clinician): n >60 m” value [9] was 0, the “Blood Pressure (clinician): 31-60 m” value [10] was 12 and the “Blood Pressure (clinician): 61-90 m” value [10] was 1. For the same compound, the “Blood Pressure (clinician): % >60 m” value [10] was 14.2%, the “Blood Pressure (clinician): >90 m” value [10] was 1 and the “Blood Pressure (clinician): TOTAL” value [10] was 14. The “Blood Pressure (clinician): n >60 m” value [10] was 2, the “Dissociation (clinician), % >60 m” value [11] was 0% and the “Dizziness, % >60 m” value [11] was 3.7%. The “Sedation, % >60 m” value [11] was 0%, the “Vertigo, % >60 m” value [11] was 4.2% and the “Dissociation (clinician), % >60 m” value [12] was 2.8%. For the same compound, the “Dizziness, % >60 m” value [12] was 2.9%, the “Sedation, % >60 m” value [12] was 11.8% and the “Vertigo, % >60 m” value [12] was 16.7%. For the same compound, the “Dissociation (clinician), % >60 m” value [13] was 4.5%, the “Dizziness, % >60 m” value [13] was 0% and the “Sedation, % >60 m” value [13] was 0%. The “Vertigo, % >60 m” value [13] was 11.1%, the “Dissociation (clinician), % >60 m” value [14] was 0% and the “Dizziness, % >60 m” value [14] was 4.3%. The “Sedation, % >60 m” value [14] was 15.8%, the “Vertigo, % >60 m” value [14] was 11.1% and the “Dissociation (clinician), % >60 m” value [15] was 4%. For the same compound, the “Dizziness, % >60 m” value [15] was 6.1%, the “Sedation, % >60 m” value [15] was 0% and the “Vertigo, % >60 m” value [15] was 15.8%. The “Dissociation (clinician), % >60 m” value [16] was 0%, the “Dizziness, % >60 m” value [16] was 0% and the “Sedation, % >60 m” value [16] was 0%. For the same compound, the “Sedation, patients by time to onset” value [16] was 0, the “Vertigo, % >60 m” value [16] was 16.7% and the “Dissociation (clinician), % >60 m” value [17] was 0%. The “Dizziness, % >60 m” value [17] was 0%, the “Sedation, % >60 m” value [17] was 0% and the “Sedation, patients by time to onset” value [17] was 0. For the same compound, the “Vertigo, % >60 m” value [17] was 0%, the “Dissociation (clinician), % >60 m” value [18] was 7.3% and the “Dizziness, % >60 m” value [18] was 5.4%. The “Sedation, % >60 m” value [18] was 57.1%, the “Vertigo, % >60 m” value [18] was 10.3% and the “Dissociation (clinician), % >60 m” value [19] was 0%. The “Dizziness, % >60 m” value [19] was 5.5%, the “Sedation, % >60 m” value [19] was 0% and the “Vertigo, % >60 m” value [19] was 0%. For the same compound, the “Dissociation (clinician), % >60 m” value [20] was 3%, the “Dizziness, % >60 m” value [20] was 2.9% and the “Sedation, % >60 m” value [20] was 0%. The “Vertigo, % >60 m” value [20] was 4%, the “Dissociation (clinician), % >60 m” value [21] was 0% and the “Dizziness, % >60 m” value [21] was 7.1%. The “Sedation, % >60 m” value [21] was 0%, the “Vertigo, % >60 m” value [21] was 0% and the “Dissociation (clinician), % >60 m” value [22] was 6.3%. For the same compound, the “Dizziness, % >60 m” value [22] was 7.9%, the “Sedation, % >60 m” value [22] was 16.7% and the “Vertigo, % >60 m” value [22] was 4.6%. For the same compound, the “Blood Pressure (clinician): 0-30 m” value (Based on Week 4, None, Month 2) was 1, the “Blood Pressure (clinician): 31-60 m” value (Based on Week 4, None, Month 2) was 13 and the “Blood Pressure (clinician): 61-90 m” value (Based on Week 4, None, Month 2) was 2. For the same compound, the “Blood Pressure (clinician): % >60 m” value (Based on Week 4, None, Month 2) was 11.1%, the “Blood Pressure (clinician): TOTAL” value (Based on Week 4, None, Month 2) was 18 and the “Blood Pressure (clinician): n >60 m” value (Based on Week 4, None, Month 2) was 2. For the same compound, the “Blood Pressure (clinician): 31-60 m” value [23] was 13, the “Blood Pressure (clinician): 61-90 m” value [23] was 1 and the “Blood Pressure (clinician): % >60 m” value [23] was 5.9%. For the same compound, the “Blood Pressure (clinician): TOTAL” value [23] was 17.
